The source of these data is PubChem BioAssay AID308 (DTP/NCI, 2004).

This experiment deals with BDF1 mice, L1210 6-MP/6-TG resistant leukemia ip, survival T/C. The experiment can be described thus: NCI In Vivo Anticancer Drug Screen. Data for tumor model L1210 Leukemia resistant to 6-MP and 6-Thioguanine; NSC 755, NSC 752 (intraperitoneal) in B6D2F1 (BDF1) mice. The note with it: endpoint: mean survival time, higher = longer survival. On the procedure: The antitumor activity of compounds was measured in mice bearing transplantable tumors. Survival or tumor size were measured and the results are expressed as the measurement made in the treated group (T) divided by the measurement made in the vehicle treated control group (C). The tumor model used in this assay is L1210 Leukemia resistant to 6-MP and 6-Thioguanine; NSC 755, NSC 752 (intraperitoneal) in B6D2F1 (BDF1) mice

[1] abbreviates: dose: 10.0 mg/kg/injection, schedule: Q01DX Z (ip), vehicle: carboxymethylcellulose (CMC).
Where [2] appears, read: dose: 25.0 mg/kg/injection, schedule: Q01DX Z (ip), vehicle: carboxymethylcellulose (CMC).

“And” between values parts separate entries of the source, which are not always exact repeats. Equal values may be shown once. Toxic doses and inconclusive results are not listed.

For the compound `CN(Cc1cnc2nc(N)nc(N)c2n1)c1c(Cl)cc(C(=O)NC(CCC(=O)O)C(=O)O)cc1Cl` (stereo not drawn), the T/C by setting is: (dose: 0.31 mg/kg/injection, schedule: Q01DX015 (ip), vehicle: carboxymethylcellulose (CMC)) 154 % of control; (dose: 0.62 mg/kg/injection, schedule: Q01DX015 (ip), vehicle: carboxymethylcellulose (CMC)) 238 % of control; (dose: 1.25 mg/kg/injection, schedule: Q01DX015 (ip), vehicle: carboxymethylcellulose (CMC)) 307 % of control; (dose: 2.5 mg/kg/injection, schedule: Q01DX015 (ip), vehicle: carboxymethylcellulose (CMC)) 175 % of control and 320 % of control; (dose: 5.0 mg/kg/injection, schedule: Q01DX015 (ip), vehicle: carboxymethylcellulose (CMC)) 219 % of control and 330 % of control; (dose: 9.0 mg/kg/injection, schedule: Q02DX010 (ip), vehicle: carboxymethylcellulose (CMC)) 348 % of control. Also, the T/C runs as follows: (dose: 10.0 mg/kg/injection, schedule: Q01DX015 (ip), vehicle: carboxymethylcellulose (CMC)) 162 % of control; (dose: 13.0 mg/kg/injection, schedule: Q01DX015 (ip), vehicle: carboxymethylcellulose (CMC)) 293 % of control; (dose: 13.0 mg/kg/injection, schedule: Q02DX010 (ip), vehicle: carboxymethylcellulose (CMC)) 348 % of control; (dose: 20.0 mg/kg/injection, schedule: Q01DX015 (ip), vehicle: carboxymethylcellulose (CMC)) 262 % of control; (dose: 20.0 mg/kg/injection, schedule: Q02DX010 (ip), vehicle: carboxymethylcellulose (CMC)) 308 % of control; (dose: 30.0 mg/kg/injection, schedule: Q01DX015 (ip), vehicle: carboxymethylcellulose (CMC)) 168 % of control and 181 % of control. Further, the T/C is 310 % of control (dose: 30.0 mg/kg/injection, schedule: Q02DX010 (ip), vehicle: carboxymethylcellulose (CMC)); 269 % of control (dose: 45.0 mg/kg/injection, schedule: Q01DX015 (ip), vehicle: carboxymethylcellulose (CMC)); 343 % of control (dose: 45.0 mg/kg/injection, schedule: Q02DX010 (ip), vehicle: carboxymethylcellulose (CMC)); 348 % of control (dose: 67.0 mg/kg/injection, schedule: Q02DX010 (ip), vehicle: carboxymethylcellulose (CMC)); 205 % of control (dose: 67.5 mg/kg/injection, schedule: Q01DX015 (ip), vehicle: carboxymethylcellulose (CMC)); 116 % of control (dose: 80.0 mg/kg/injection, schedule: Q01DX015 (ip), vehicle: carboxymethylcellulose (CMC)). Further, the T/C is 194 % of control (dose: 80.0 mg/kg/injection, schedule: Q01DX015 (ip), vehicle: saline); 121 % of control (dose: 100.0 mg/kg/injection, schedule: Q01DX015 (ip), vehicle: carboxymethylcellulose (CMC)); 233 % of control (dose: 100.0 mg/kg/injection, schedule: Q01DX015 (ip), vehicle: saline); 104 % of control (dose: 120.0 mg/kg/injection, schedule: Q01DX015 (ip), vehicle: carboxymethylcellulose (CMC)); 112 % of control (dose: 120.0 mg/kg/injection, schedule: Q01DX015 (ip), vehicle: saline); 307 % of control (dose: 75.0 micrograms/kg/injection, schedule: Q01DX015 (ip), vehicle: carboxymethylcellulose (CMC)). Further, the T/C reads like this: (dose: 150.0 micrograms/kg/injection, schedule: Q01DX015 (ip), vehicle: carboxymethylcellulose (CMC)) 300 % of control; (dose: 310.0 micrograms/kg/injection, schedule: Q01DX015 (ip), vehicle: carboxymethylcellulose (CMC)) 293 % of control; (dose: 620.0 micrograms/kg/injection, schedule: Q01DX015 (ip), vehicle: carboxymethylcellulose (CMC)) 313 % of control.
`CSc1ncnc2c1ncn2CO`: the T/C reads like this: (dose: 50.0 mg/kg/injection, schedule: Q01DX009 (ip), vehicle: other) 104 % of control; (dose: 100.0 mg/kg/injection, schedule: Q01DX009 (ip), vehicle: other) 110 % of control.
`Clc1ncnc2c1ncn2C1CCCCO1` (stereo not drawn): the T/C by setting is: (dose: 62.0 mg/kg/injection, schedule: Q01DX Z (ip), vehicle: other) 96 % of control; (dose: 125.0 mg/kg/injection, schedule: Q01DX Z (ip), vehicle: other) 91 % of control.
Turning to `Nn1cnc2c(=S)nc[nH]c21`, the T/C runs as follows: (dose: 18.0 mg/kg/injection, schedule: Q01DX009 (ip), vehicle: other) 98 % of control; (dose: 28.0 mg/kg/injection, schedule: Q01DX009 (ip), vehicle: other) 96 % of control; (dose: 42.0 mg/kg/injection, schedule: Q01DX015 (ip), vehicle: other) 99 % of control; (dose: 72.0 mg/kg/injection, schedule: Q01DX015 (ip), vehicle: other) 92 % of control.
On to `Nc1ncnc2[nH]ncc12`, for which the T/C was 105 % of control (dose: 7.5 mg/kg/injection, schedule: Q01DX Z (ip), vehicle: carboxymethylcellulose (CMC)); 92 % of control under setting [1]; 94 % of control (dose: 15.0 mg/kg/injection, schedule: Q01DX Z (ip), vehicle: carboxymethylcellulose (CMC)); 97 % of control under setting [2].
`Cc1cc(N(CCCl)CCCl)ccc1N=Nc1ccccc1C(=O)O`: the T/C was 119 % of control (dose: 4.5 mg/kg/injection, schedule: Q01DX Z (ip), vehicle: carboxymethylcellulose (CMC)); 124 % of control (dose: 9.0 mg/kg/injection, schedule: Q01DX Z (ip), vehicle: carboxymethylcellulose (CMC)); 114 % of control (dose: 18.75 mg/kg/injection, schedule: Q01DX Z (ip), vehicle: carboxymethylcellulose (CMC)); 123 % of control under setting [2]; 90 % of control (dose: 37.5 mg/kg/injection, schedule: Q01DX Z (ip), vehicle: carboxymethylcellulose (CMC)).
Take `CCOC(=O)NP(=O)(N1CC1(C)C)N1CC1(C)C` (stereo not drawn): the T/C was 113 % of control (dose: 31.0 mg/kg/injection, schedule: Q01DX Z (ip), vehicle: saline); 160 % of control (dose: 62.0 mg/kg/injection, schedule: Q01DX Z (ip), vehicle: saline); 228 % of control (dose: 62.5 mg/kg/injection, schedule: Q01DX Z (ip), vehicle: saline); 182 % of control (dose: 93.0 mg/kg/injection, schedule: Q01DX Z (ip), vehicle: saline); 160 % of control and 207 % of control (dose: 125.0 mg/kg/injection, schedule: Q01DX Z (ip), vehicle: saline); 207 % of control (dose: 187.0 mg/kg/injection, schedule: Q01DX Z (ip), vehicle: saline).
For the compound `Clc1ccc(C(c2ccccc2Cl)C(Cl)Cl)cc1` (stereo not drawn), the T/C (dose: 23.0 mg/kg/injection, schedule: Q01DX Z (sc), vehicle: steriod suspending solution) is 94 % of control; the T/C (dose: 46.0 mg/kg/injection, schedule: Q01DX Z (sc), vehicle: steriod suspending solution) is 97 % of control; the T/C (dose: 93.0 mg/kg/injection, schedule: Q01DX Z (sc), vehicle: steriod suspending solution) is 103 % of control; the T/C (dose: 187.0 mg/kg/injection, schedule: Q01DX Z (sc), vehicle: steriod suspending solution) was 101 % of control; the T/C (dose: 375.0 mg/kg/injection, schedule: Q01DX Z (sc), vehicle: steriod suspending solution) was 104 % of control; the T/C (dose: 500.0 mg/kg/injection, schedule: Q01DX Z (sc), vehicle: steriod suspending solution) was 100 % of control. Moreover, the T/C is 96 % of control (dose: 750.0 mg/kg/injection, schedule: Q01DX Z (sc), vehicle: steriod suspending solution) and 98 % of control (dose: 1000.0 mg/kg/injection, schedule: Q01DX Z (sc), vehicle: steriod suspending solution).
Take `O=c1[nH]cnc2n[nH]nc12`: the T/C (dose: 278.0 mg/kg/injection, schedule: Q01DX009 (ip), vehicle: saline with Tween-80) is 99 % of control; the T/C (dose: 423.0 mg/kg/injection, schedule: Q01DX009 (ip), vehicle: Klucel (hydroxypropylcellulose) (HPC)) was 96 % of control; the T/C (dose: 423.0 mg/kg/injection, schedule: Q01DX009 (ip), vehicle: saline with Tween-80) is 98 % of control; the T/C (dose: 632.0 mg/kg/injection, schedule: Q01DX009 (ip), vehicle: Klucel (hydroxypropylcellulose) (HPC)) is 100 % of control; the T/C (dose: 632.0 mg/kg/injection, schedule: Q01DX009 (ip), vehicle: saline with Tween-80) is 98 % of control; the T/C (dose: 948.0 mg/kg/injection, schedule: Q01DX009 (ip), vehicle: saline with Tween-80) is 94 % of control.
Turning to `CCC(=O)OCC1OC(n2cnc3c(=S)nc(N)[nH]c32)C(OC(=O)CC)C1OC(=O)CC` (stereo not drawn), the T/C runs as follows: (dose: 5.0 mg/kg/injection, schedule: Q01DX Z (ip), vehicle: carboxymethylcellulose (CMC)) 109 % of control; under setting [1], 117 % of control; (dose: 20.0 mg/kg/injection, schedule: Q01DX Z (ip), vehicle: carboxymethylcellulose (CMC)) 109 % of control; (dose: 40.0 mg/kg/injection, schedule: Q01DX Z (ip), vehicle: carboxymethylcellulose (CMC)) 103 % of control.
